Laboratory results reported in patent publication US8802597B2, “Herbicidal pyrimidines” (E I du Pont de Nemours and Company, priority 2003, dated 2014).
Read-outs that look alike come from different tables or passages of the source.

Key:
Experiment in all cases: Test A pre/postemergence
Assay type in all cases: in vivo
[1] = test system: crabgrass (Digitaria sanguinalis); conditions: Digitaria sanguinalis, 240 h, read-out: Plant response rating, Crabgrass; for pest or weed control at 125 g/ha: 125 g ai/ha; for pest or weed control at 500 g/ha: 500 g ai/ha
Procedure, shortened: (§1)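 Visual injury scores on a 0–100 scale, 100 being complete control, were assigned roughly ten days after treatment by comparison with untreated greenhouse controls. Test chemicals, formulated with surfactant in non-phytotoxic solvent, were sprayed onto soil preemergence and onto 1–2-leaf plants 2–10 cm tall postemergence.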

[2] = test system: morningglory (Ipomoea spp.); conditions: Ipomoea, 240 h, read-out: Plant response rating, Morningglory; for pest or weed control at 125 g/ha: 125 g ai/ha; for pest or weed control at 500 g/ha: 500 g ai/ha
Procedure, shortened: as §1

[3] = test system: barnyardgrass (Echinochloa crus-galli); conditions: Echinochloa crus-galli, 240 h, read-out: Plant response rating, Barnyardgrass; for pest or weed control at 125 g/ha: 125 g ai/ha; for pest or weed control at 500 g/ha: 500 g ai/ha
Procedure, shortened: as §1

[4] = test system: redroot pigweed (Amaranthus retroflexus); conditions: Amaranthus retroflexus, 240 h, read-out: Plant response rating, Pigweed; for pest or weed control at 125 g/ha: 125 g ai/ha; for pest or weed control at 500 g/ha: 500 g ai/ha
Procedure, shortened: as §1

[5] = test system: giant foxtail (Setaria faberi); conditions: Setaria faberi, 240 h, read-out: Plant response rating, Foxtail, Giant; for pest or weed control at 125 g/ha: 125 g ai/ha; for pest or weed control at 500 g/ha: 500 g ai/ha
Procedure, shortened: as §1

[6] = test system: velvetleaf (Abutilon theophrasti); conditions: Abutilon theophrasti, 240 h, read-out: Plant response rating, Velvetleaf; for pest or weed control at 125 g/ha: 125 g ai/ha; for pest or weed control at 500 g/ha: 500 g ai/ha
Procedure, shortened: as §1

[7] = post-emergence, Postemergence, 0 to 100 scale (0 no effect, 100 complete control)
[8] = pre-emergence, Preemergence, 0 to 100 scale where 0 is no effect and 100 is complete control, approximately ten days

Structure (SMILES) | pest or weed control at 125 g/ha [1, 7] [%] | pest or weed control at 500 g/ha [1, 7] [%] | pest or weed control at 125 g/ha [1, 8] [%] | pest or weed control at 500 g/ha [1, 8] [%] | pest or weed control at 125 g/ha [2, 7] [%] | pest or weed control at 500 g/ha [2, 7] [%] | pest or weed control at 125 g/ha [2, 8] [%] | pest or weed control at 500 g/ha [2, 8] [%] | pest or weed control at 125 g/ha [3, 7] [%] | pest or weed control at 500 g/ha [3, 7] [%] | pest or weed control at 125 g/ha [3, 8] [%] | pest or weed control at 500 g/ha [3, 8] [%] | pest or weed control at 125 g/ha [4, 7] [%] | pest or weed control at 500 g/ha [4, 7] [%] | pest or weed control at 125 g/ha [4, 8] [%] | pest or weed control at 500 g/ha [4, 8] [%] | pest or weed control at 125 g/ha [5, 7] [%] | pest or weed control at 500 g/ha [5, 7] [%] | pest or weed control at 125 g/ha [5, 8] [%] | pest or weed control at 500 g/ha [5, 8] [%] | further results
COC(=O)c1nc(-c2ccc(Cl)cc2)nc(N)c1Cl [Compound 58, methyl 6-amino-5-chloro-2-(4-chlorophenyl)-4-pyrimidinecarboxylate] | 5 | 10 | 0 | 0 | 55 | 80 | 10 | 25 | 5 | 10 | 0 | 0 | 70 | 80 | 0 | 60 | 0 | 50 | 0 | 10 | pest or weed control at 125 g/ha [6, 7]: 70%; pest or weed control at 500 g/ha [6, 7]: 85%; pest or weed control at 125 g/ha [6, 8]: 0%; pest or weed control at 500 g/ha [6, 8]: 40%
COC(=O)c1nc(C2CC2)nc(N)c1OC [Compound 59] | 0 | 10 | 0 | 0 | 90 | 100 | 80 | 100 | 0 | 30 | 0 | 15 | 60 | 80 | 20 | 70 | 0 | 35 | 0 | 0 | pest or weed control at 125 g/ha [6, 7]: 60%; pest or weed control at 500 g/ha [6, 7]: 85%; pest or weed control at 125 g/ha [6, 8]: 10%; pest or weed control at 500 g/ha [6, 8]: 45%
CCOC(=O)c1nc(-c2ccc3c(c2)OCO3)nc(N)c1Cl [Compound 74] | 30 | 60 | 20 | 50 | 40 | 30 | 0 | 30 | 30 | 70 | 0 | 50 | 60 | 70 | 0 | 40 | 60 | 70 | 0 | 40 | pest or weed control at 125 g/ha [6, 7]: 70%; pest or weed control at 500 g/ha [6, 7]: 80%; pest or weed control at 125 g/ha [6, 8]: 30%; pest or weed control at 500 g/ha [6, 8]: 50%
CNc1nc(C2CC2)nc(C(=O)OC)c1Cl [Compound 79] | 40 | 75 | 30 | 80 | 90 | 95 | 55 | 100 | 85 | 90 | 30 | 80 | 90 | 100 | 90 | 100 | 80 | 90 | 40 | 95 | pest or weed control at 125 g/ha [6, 7]: 90%; pest or weed control at 500 g/ha [6, 7]: 95%; pest or weed control at 125 g/ha [6, 8]: 60%; pest or weed control at 500 g/ha [6, 8]: 90%
